These results are taken from patent US8940769B2, “Biaryl benzoimidazole derivatives and pharmaceutical composition comprising the same” (Daewoong Pharmaceutical Co., Ltd., priority 2006, dated 2015).

In the assay the target is T1, human vanilloid receptor VR-1 (hVR1) (Homo sapiens, UniProt Q8NER1).
T1 construct: expressed in transfected cells; host or cells: HEK293 Tet-on cells (hVR1-HEK293), expression induced with doxycycline
As to the kind of experiment: Calcium influx test of vanilloid receptor (capsaicin-induced, Fluo-3/AM, hVR1-HEK293 cells). Type of assay: cell-based. The conditions noted are these: for IC50: calcium influx induced by 1 μM capsaicin, read-out: Inhibitory effect IC50 (nM) on calcium influx; for inhibition at 0.2 µM / Inhibitory effect (%) on calcium influx: single concentration of compound 200 nM, 1 μM capsaicin; for inhibition at 0.2 µM: read-out: Inhibitory effect (%) on calcium influx. As for the experimental part: In order to measure an activity of the biaryl benzoimidazole derivative of the invention as an antagonist, a calcium influx test was performed.
An hVR1-HEK293 cell line is a cell line, in which a Human Embryonic Kidney (HEK) 293 Tet-on cell is transformed with a human vanilloid-1 gene (pTRE2hyg-hVR1, 7.8 kb). The cell line can regulate a VR-1 expression, depending on the administration of a tetracycline analogue, doxycycline. At two days before the calcium influx test, the cell line was cultured in media containing doxycycline to induce the VR-1 expression, and then used. First, the hVR1-HEK293 cells were cultured in T75 flasks to have a density of about 80%, and then detached from the bottom of the flasks by using trypsin. The detached cells were centrifuged and collected. Then, the cells were suspended in media containing 1 μg/mL doxycycline, and diluted to have a concentration of 2×10^5 to 4×10^5 cells/mL. 100 μL of the suspended cells were added to each well of 96-well black plate, cultured at 37° C. and 5% CO2 cell incubator for two days, and then used in the calcium influx test.
The compound was dissolved in dimethyl sulfoxide (DMSO), and then used for the calcium influx test.
In order to measure the calcium influx […], the cells were cultured in a solution containing Fluo-3/AM, which is a calcium indicator, at 37° C. for 90 minutes, so as to be permeated by a fluorescent dye. […] 193 μL D-PBS were added to each well, and then the compound was added thereto in various concentrations. To measure an activity as an antagonist, the cells were treated with 1 μM capsaicin to stimulate the calcium influx. The inhibitory effect of the compound when calcium influx was induced by 1 μM capsaicin was measured depending on its concentration using a fluorescence spectrometer, and the obtained data were substituted into a hill equation to analyze the values.
The inhibitory effect on calcium influx was measured with a single concentration of the compounds of the invention (200 nM), and the result thereof are shown in Table 2.

T1 sequence (Q8NER1 whole entry): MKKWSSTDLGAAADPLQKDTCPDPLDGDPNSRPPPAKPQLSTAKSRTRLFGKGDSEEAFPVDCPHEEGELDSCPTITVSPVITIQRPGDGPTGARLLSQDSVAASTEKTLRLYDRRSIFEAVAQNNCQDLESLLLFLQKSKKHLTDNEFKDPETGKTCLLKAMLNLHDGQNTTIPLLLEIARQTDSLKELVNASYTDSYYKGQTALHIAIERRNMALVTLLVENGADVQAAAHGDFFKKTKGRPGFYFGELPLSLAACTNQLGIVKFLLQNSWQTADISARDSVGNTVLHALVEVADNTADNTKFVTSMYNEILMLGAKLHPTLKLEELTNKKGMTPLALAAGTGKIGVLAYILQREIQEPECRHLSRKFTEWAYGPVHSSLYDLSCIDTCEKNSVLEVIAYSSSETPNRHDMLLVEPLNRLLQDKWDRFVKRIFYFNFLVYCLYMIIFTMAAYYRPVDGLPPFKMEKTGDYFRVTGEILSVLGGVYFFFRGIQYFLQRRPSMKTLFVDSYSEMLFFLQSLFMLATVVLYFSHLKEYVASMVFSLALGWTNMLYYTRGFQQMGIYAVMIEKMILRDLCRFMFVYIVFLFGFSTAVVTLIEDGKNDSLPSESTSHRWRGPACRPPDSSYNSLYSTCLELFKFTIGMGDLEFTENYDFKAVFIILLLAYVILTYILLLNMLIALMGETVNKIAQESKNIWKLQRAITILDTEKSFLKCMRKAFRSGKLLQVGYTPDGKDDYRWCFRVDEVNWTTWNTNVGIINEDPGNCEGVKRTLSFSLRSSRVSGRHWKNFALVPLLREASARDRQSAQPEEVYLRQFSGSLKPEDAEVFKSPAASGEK

What is called IC50 is the midpoint of a concentration-inhibition curve. Consider `CC(=O)OCc1cnc(-c2ccc(-c3nc4ccc(C(C)(C)C)cc4[nH]3)cc2)c(Cl)c1` [Compound 54, acetic acid 6-[4-(6-tert-butyl-1H-benzoimidazol-2-yl)-phenyl]-5-chloro-pyridin-3-yl methyl ester], for which the IC50 is 319 nM and the inhibition at 0.2 µM amounted to 14.6%.

Regarding `COC(=O)c1cnc(-c2ccc(-c3nc4ccc(C(C)(C)C)cc4[nH]3)nc2)c(Cl)c1` [Compound 74, 6′-(6-tert-butyl-1H-benzoimidazol-2-yl)-3-chloro-[2,3′]bipyridinyl-5-carboxylic acid methyl ester], the IC50 came out at 26.2 nM and the inhibition at 0.2 µM worked out at 81.3%.

For the molecule `CCNC(=O)c1cnc(-c2ccc(-c3nc4c(Br)cc(C(F)(F)F)cc4[nH]3)nc2)c(Cl)c1` [Compound 101, 6′-(4-bromo-6-trifluoromethyl-1H-benzoimidazol-2-yl)-3-chloro-[2,3′]bipyridinyl-5-carboxylic acid ethyl amide], the inhibition at 0.2 µM came out at 3.7%.

Turning to `CCNC(=O)c1cnc(-c2ccc(-c3nc4ccc(N5CCOCC5)cc4[nH]3)nc2)c(Cl)c1` [Compound 95, 3-chloro-6′-(6-morpholin-4-yl-1H-benzoimidazol-2-yl)-[2,3′]bipyridinyl-5-carboxylic acid ethyl amide], the inhibition at 0.2 µM was -0.6%.

In the case of `FC(F)(F)c1ccc2nc(-c3ccc(-c4ncc(CBr)cc4Cl)cc3)[nH]c2c1` [Compound 34, 2-[4-(5-bromomethyl-3-chloro-pyridin-2-yl)-phenyl]-6-trifluoromethyl-1H-benzoimidazole], the inhibition at 0.2 µM was determined as 13%.

In the case of `O=C(O)c1cnc(-c2ccc(-c3nc4ccc(Br)cc4[nH]3)nc2)c(Cl)c1` [Compound 83, 6′-(6-bromo-1H-benzoimidazol-2-yl)-3-chloro-[2,3′]bipyridinyl-5-carboxylic acid], the inhibition at 0.2 µM was 22.8%.

For `OCc1cnc(-c2ccc(-c3nc4ccc(N5CCOCC5)cc4[nH]3)nc2)c(Cl)c1` [Compound 87, [3-chloro-6′-(6-morpholin-4-yl-1H-benzoimidazol-2-yl)-[2,3′]bipyridinyl-5-yl]-methanol], the inhibition at 0.2 µM worked out at 3.7%.

With `OCc1cnc(-c2ccc(-c3nc4c(Br)cc(C(F)(F)F)cc4[nH]3)cc2)c(Cl)c1` [Compound 32, {6-[4-(4-bromo-6-trifluoromethyl-1H-benzoimidazol-2-yl)-phenyl]-5-chloro-pyridin-3-yl}-methanol], the inhibition at 0.2 µM came out at 6%.

With `OCc1cnc(-c2ccc(-c3nc4ccc(N5CCOCC5)cc4[nH]3)cc2)c(Cl)c1` [Compound 26, {5-chloro-6-[4-(6-morpholin-4-yl-1H-benzoimidazol-2-yl)-phenyl]-pyridin-3-yl}-methanol], the inhibition at 0.2 µM was determined as 5%.

As for `O=C(O)c1cnc(-c2ccc(-c3nc4c(Br)cc(C(F)(F)F)cc4[nH]3)nc2)c(Cl)c1` [Compound 85, 6′-(4-bromo-6-trifluoromethyl-1H-benzoimidazol-2-yl)-3-chloro-[2,3′]bipyridinyl-5-carboxylic acid], the inhibition at 0.2 µM was found to be 4.2%.

`CC(C)(C)c1ccc2nc(-c3ccc(-c4ncc(C(=O)O)cc4Cl)cn3)[nH]c2c1` [Compound 82, 6′-(6-tert-butyl-1H-benzoimidazol-2-yl)-3-chloro-[2,3′]bipyridinyl-5-carboxylic acid]: the inhibition at 0.2 µM amounted to 6.7%.

Consider `OCc1cnc(-c2ccc(-c3nc4ccc(Br)cc4[nH]3)nc2)c(Cl)c1` [Compound 91, [6′-(6-bromo-1H-benzoimidazol-2-yl)-3-chloro-[2,3′]bipyridinyl-5-yl]-methanol], for which the IC50 came out at 517 nM and the inhibition at 0.2 µM worked out at 27.6%.

As for `CN1CCN(c2ccc3nc(-c4ccc(-c5ncc(CO)cc5Cl)cc4)[nH]c3c2)CC1` [Compound 27, (5-chloro-6-{4-[6-(4-methyl-piperazin-1-yl)-1H-benzoimidazol-2-yl]-phenyl}-pyridin-3-yl)-methanol], the inhibition at 0.2 µM was found to be 4%.

For `O=C(O)c1cnc(-c2ccc(-c3nc4ccc(N5CCOCC5)cc4[nH]3)nc2)c(Cl)c1` [Compound 79, 3-chloro-6′-(6-morpholin-4-yl-1H-benzoimidazol-2-yl)-[2,3′]bipyridinyl-5-carboxylic acid], the inhibition at 0.2 µM turned out to be 3.3%.

On to `COC(=O)c1cnc(-c2ccc(-c3nc4ncc(Br)cc4[nH]3)nc2)c(Cl)c1` [Compound 76, 6′-(6-bromo-1H-imidazo[4,5-b]pyridin-2-yl)-3-chloro-[2,3′]bipyridinyl-5-carboxylic acid methyl ester], for which the inhibition at 0.2 µM was 7%.

In the case of `O=C(O)c1cnc(-c2ccc(-c3nc4ncc(Br)cc4[nH]3)cc2)c(Cl)c1` [Compound 46, 6-[4-(6-bromo-1H-imidazo[4,5-b]pyridin-2-yl)-phenyl]-5-chloro-nicotinic acid], the inhibition at 0.2 µM worked out at 7.2%.

As for `CC(=O)OCc1cnc(-c2ccc(-c3nc4c(Br)cc(C(F)(F)F)cc4[nH]3)cc2)c(Cl)c1` [Compound 57, acetic acid 6-[4-(4-bromo-6-trifluoromethyl-1H-benzoimidazol-2-yl)-phenyl]-5-chloro-pyridin-3-yl methyl ester], the “Inhibitory effect (%) on calcium influx” value was 16.9%.

Regarding `C=Cc1cnc(-c2ccc(-c3nc4ccc(C(C)(C)C)cc4[nH]3)cc2)c(Cl)c1` [Compound 38, 6-tert-butyl-2-[4-(3-chloro-5-vinyl-pyridin-2-yl)-phenyl]-1H-benzoimidazole], the inhibition at 0.2 µM came to 11.7%.

With `CCNC(=O)c1cnc(-c2ccc(-c3nc4ccc(C(C)(C)C)cc4[nH]3)cc2)c(Cl)c1` [Compound 62, 6-[4-(6-tert-butyl-1H-benzoimidazol-2-yl)-phenyl]-5-chloro-N-ethyl-nicotinamide], the IC50 worked out at 126 nM and the inhibition at 0.2 µM came to 54.3%.

Consider `CC(C)(C)c1ccc2nc(-c3ccc(-c4ncc(CBr)cc4Cl)cc3)[nH]c2c1` [Compound 35, 2-[4-(5-bromomethyl-3-chloro-pyridin-2-yl)-phenyl]-6-tert-butyl-1H-benzoimidazole], for which the inhibition at 0.2 µM amounted to 59.6%.

For the molecule `C=Cc1cnc(-c2ccc(-c3nc4ccc(C(C)(C)C)cc4[nH]3)nc2)c(Cl)c1` [Compound 67, 6′-(6-tert-butyl-1H-benzoimidazol-2-yl)-3-chloro-5-vinyl-[2,3′]bipyridinyl], the inhibition at 0.2 µM was -8.8%.

For the molecule `O=C(O)c1cnc(-c2ccc(-c3nc4ccc(C(F)(F)F)cc4[nH]3)nc2)c(Cl)c1` [Compound 81, 3-chloro-6′-(6-trifluoromethyl-1H-benzoimidazol-2-yl)-[2,3′]bipyridinyl-5-carboxylic acid], the inhibition at 0.2 µM worked out at 9.6%.

On to `CC(C)(C)c1ccc2nc(-c3ccc(-c4ncc(CO)cc4Cl)cn3)[nH]c2c1` [Compound 90, [6′-(6-tert-butyl-1H-benzoimidazol-2-yl)-3-chloro-[2,3′]bipyridinyl-5-yl]-methanol], for which the IC50 turned out to be 158 nM and the inhibition at 0.2 µM was 42.7%.

`CC(=O)OCc1cnc(-c2ccc(-c3nc4ccc(Br)cc4[nH]3)cc2)c(Cl)c1` [Compound 55, acetic acid 6-[4-(6-bromo-1H-benzoimidazol-2-yl)-phenyl]-5-chloro-pyridin-3-yl methyl ester]: the “Inhibitory effect (%) on calcium influx” value was found to be 0.9%.

For the molecule `OCc1cnc(-c2ccc(-c3nc4c(Br)cc(C(F)(F)F)cc4[nH]3)nc2)c(Cl)c1` [Compound 93, [6′-(4-bromo-6-trifluoromethyl-1H-benzoimidazol-2-yl)-3-chloro-[2,3′]bipyridinyl-5-yl]-methanol], the IC50 is 129 nM and the inhibition at 0.2 µM was found to be 41%.

Regarding `O=C(O)c1cnc(-c2ccc(-c3nc4c(Br)cc(C(F)(F)F)cc4[nH]3)cc2)c(Cl)c1` [Compound 47, 6-[4-(4-bromo-6-trifluoromethyl-1H-benzoimidazol-2-yl)-phenyl]-5-chloro-nicotinic acid], the inhibition at 0.2 µM stood at 5.7%.

As to `CN1CCN(c2ccc3nc(-c4ccc(-c5ncc(C(=O)O)cc5Cl)cn4)[nH]c3c2)CC1` [Compound 80, 3-chloro-6′-[6-(4-methyl-piperazin-1-yl)-1H-benzoimidazol-2-yl]-[2,3′]bipyridinyl-5-carboxylic acid], the inhibition at 0.2 µM was -5%.

For `C=Cc1cnc(-c2ccc(-c3nc4c(Br)cc(C(F)(F)F)cc4[nH]3)cc2)c(Cl)c1` [Compound 41, 4-bromo-2-[4-(3-chloro-5-vinyl-pyridin-2-yl)-phenyl]-6-trifluoromethyl-1H-benzoimidazole], the inhibition at 0.2 µM is -2.1%.

`CN1CCN(c2ccc3nc(-c4ccc(-c5ncc(CO)cc5Cl)cn4)[nH]c3c2)CC1` [Compound 88, {3-chloro-6′-[6-(4-methyl-piperazin-1-yl)-1H-benzoimidazol-2-yl]-[2,3′]bipyridinyl-5-yl}-methanol]: the inhibition at 0.2 µM was determined as 15.3%.
